Read-outs that look alike come from different tables or passages of the source.
Conditions: field, Córdoba, initial amount 15 g, UV8, 1.6 mm orifice
Description: The devices consisted of a pesticide coated insecticide transfer envelope (˜10 mg of deltamethrin) equipped with a hook containing an attractant lure on the inside of the envelope (see FIG. 3). Attractant lures inside Magnet™ ORO were labelled and individually weighed at different periods of time. Qualitative identity of the remaining material was assessed by means of FTIR and compared with standards. Each lure was constructed using polypropylene/calcium carbonate film (UV8) as the membrane and Scotchpak™ (3M) polyester laminate film as the impermeable barrier material and a 1.6 mm ( 1/16 in) diameter spherical punch in the impermeable layer exposing the membrane and an ˜8 mm ( 5/16 in) diameter heat seal around the circumference of the punch (referred to as a ring seal). Each prototype contained 15 g of ammonium carbonate as the volatile insect attractant.
The trials were performed in Córdoba, Spain June-November 2019 where the average temperatures (high/low) are 32/17° C. (90/62° F.) in June, 37/19° C. (98/67° F.) in July, 35/19° C. (95/66° F.) in August, 32/18° C. (90/64° F.) in September, 24/13° C. (76/55° F.) in October, and 18/8° C. (65/47° F.) in November.

Question: With `N.N.O=C(O)O` [Ammonium Carbonate, ammonium carbonate] as the compound, how does the “Average Mass Loss” value (day 0 (Jul. 22, 2019)) read?
Answer: 0.0890 g/day

Question: What about the “Average Mass Loss” value (day 9 (Jul. 31, 2019)) of the same compound?
Answer: 0.1082 g/day

Question: And the “Average Mass Loss” value (day 21 (Aug. 12, 2019))?
Answer: 0.0948 g/day

Question: And the “Average Mass Loss” value (day 28 (Aug. 19, 2019))?
Answer: 0.0976 g/day

Question: And the “Average Mass Loss” value (day 45 (Sep. 5, 2019))?
Answer: 0.0498 g/day

Question: And the “Average Mass Loss” value (day 57 (Sep. 17, 2019))?
Answer: 0.0111 g/day

Question: And the “Average Mass Loss” value (day 72 (Oct. 2, 2019))?
Answer: 0.0191 g/day

Question: What about the “Average Mass Loss” value (day 80 (Oct. 10, 2019)) of the same compound?
Answer: 0.0299 g/day

Question: What about the “Average Mass Loss” value (day 91 (Oct. 21, 2019)) of the same compound?
Answer: 0.0001 g/day

Question: And the “Average Mass Loss” value (day 105 (Nov. 4, 2019))?
Answer: 0.0046 g/day

Source: US12178210B2, “Insect attractant and killing system” (priority 2020, dated 2024)
